Experimental data from PubChem BioAssay AID330 (DTP/NCI, 2004).
Toxic doses and inconclusive results are not listed.

Tested on: P388 leukemia ip, CD2F1 mice, survival T/C
Test: NCI In Vivo Anticancer Drug Screen. Data for tumor model P388 Leukemia (intraperitoneal) in CD2F1 (CDF1) mice
Settings: endpoint: median survival time, higher = longer survival
Outline: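 Mice carrying the transplanted tumor received test compound or vehicle. Survival was recorded in each group, and the value is the treated-group measurement divided by that of the vehicle-treated control group.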

[1] = dose: 100.0 mg/kg/injection, schedule: Q01DX001 (ip), vehicle: saline with Tween-80
[2] = dose: 200.0 mg/kg/injection, schedule: Q01DX001 (ip), vehicle: saline with Tween-80
[3] = dose: 400.0 mg/kg/injection, schedule: Q01DX001 (ip), vehicle: saline with Tween-80
[4] = dose: 50.0 mg/kg/injection, schedule: Q01DX005 (ip), vehicle: saline with Tween-80
[5] = dose: 100.0 mg/kg/injection, schedule: Q01DX005 (ip), vehicle: saline with Tween-80
[6] = dose: 200.0 mg/kg/injection, schedule: Q01DX005 (ip), vehicle: saline with Tween-80
[7] = dose: 50.0 mg/kg/injection, schedule: Q01DX005 (ip), vehicle: Klucel (hydroxypropylcellulose) (HPC)
[8] = dose: 100.0 mg/kg/injection, schedule: Q01DX005 (ip), vehicle: Klucel (hydroxypropylcellulose) (HPC)
[9] = dose: 200.0 mg/kg/injection, schedule: Q01DX005 (ip), vehicle: Klucel (hydroxypropylcellulose) (HPC)
[10] = dose: 100.0 mg/kg/injection, schedule: Q04DX003 (ip), vehicle: saline with Tween-80
[11] = dose: 100.0 mg/kg/injection, schedule: Q04DX003 (ip), vehicle: saline
[12] = dose: 200.0 mg/kg/injection, schedule: Q04DX003 (ip), vehicle: saline

Question: For CC[N+](C)(CC)CCl, which T/C (dose: 7.5 mg/kg/injection, schedule: Q01DX005 (ip), vehicle: saline) is on record?
Answer: 104 % of control

Question: And the T/C (dose: 15.0 mg/kg/injection, schedule: Q01DX005 (ip), vehicle: saline)?
Answer: 99 % of control

Question: For CCN(CCOC(=O)Nc1ccc(Cl)cc1)C(=O)Nc1ccc(Cl)cc1, which T/C (dose: 60.0 mg/kg/injection, schedule: Q01DX005 (ip), vehicle: Klucel + Tween-80) is on record?
Answer: 90 % of control

Question: And the T/C (dose: 120.0 mg/kg/injection, schedule: Q01DX005 (ip), vehicle: Klucel + Tween-80)?
Answer: 87 % of control

Question: What about the T/C (dose: 240.0 mg/kg/injection, schedule: Q01DX005 (ip), vehicle: Klucel + Tween-80) of the same molecule?
Answer: 87 % of control

Question: What does the source list for CCOC(=O)C1=NN(C)C(=O)C1?
Answer: T/C [1]: 99 % of control; T/C [2]: 115 % of control; T/C [3]: 104 % of control

Question: Nc1ccc(Nc2c3ccccc3nc3ccccc23)cc1 was tested. Which T/C (dose: 6.25 mg/kg/injection, schedule: Q04DX003 (ip), vehicle: saline) did it give?
Answer: 104 % of control

Question: What about the T/C (dose: 12.5 mg/kg/injection, schedule: Q04DX003 (ip), vehicle: saline) of the same molecule?
Answer: 100 % of control

Question: What about the T/C (dose: 25.0 mg/kg/injection, schedule: Q04DX003 (ip), vehicle: saline) of the same molecule?
Answer: 121 % of control

Question: Which T/C [4] does the source give for O=C(NCCCl)Nc1ccn(C(=O)NCCCl)c(=O)n1 here?
Answer: 95 % of control

Question: What about the T/C [5] of the same molecule?
Answer: 100 % of control

Question: Which T/C [1] does the source give for COc1nc2c(c(O)cn2C2OCC(OC(C)=O)C(OC(C)=O)C2OC(C)=O)c(=O)n1C (stereo unspecified) here?
Answer: 106 % of control

Question: What about the T/C [2] of the same molecule?
Answer: 92 % of control

Question: And the T/C [3]?
Answer: 99 % of control

Question: Cc1cccc(CSCc2c(CSCc3cccc(C)c3)c(CSCc3cccc(C)c3)c(CSCc3cccc(C)c3)c(CSCc3cccc(C)c3)c2CSCc2cccc(C)c2)c1 was tested. Which T/C [1] did it give?
Answer: 114 % of control

Question: What about the T/C [2] of the same molecule?
Answer: 105 % of control

Question: What about the T/C [3] of the same molecule?
Answer: 101 % of control

Question: Which T/C [4] does the source give for O=C1CSC(c2ccoc2)N1N1C(=O)CSC1c1ccoc1 (stereo unspecified) here?
Answer: 90 % of control

Question: What about the T/C [5] of the same molecule?
Answer: 87 % of control

Question: And the T/C [6]?
Answer: 90 % of control

Question: For CS(=O)(=O)C(c1nc2nnc(NC(=O)Nc3ccc(Cl)cc3)n2[nH]c1=O)c1nc2nnc(NC(=O)Nc3ccc(Cl)cc3)n2[nH]c1=O, which T/C (dose: 60.0 mg/kg/injection, schedule: Q01DX005 (ip), vehicle: saline with Tween-80) is on record?
Answer: 104 % of control

Question: What about the T/C (dose: 120.0 mg/kg/injection, schedule: Q01DX005 (ip), vehicle: saline with Tween-80) of the same molecule?
Answer: 100 % of control

Question: And the T/C (dose: 240.0 mg/kg/injection, schedule: Q01DX005 (ip), vehicle: saline with Tween-80)?
Answer: 98 % of control

Question: How did the T/C [7] turn out when CCOC(=O)/C(C#N)=N/Nc1ccc2cn[nH]c2c1 was run?
Answer: 99 % of control

Question: What about the T/C [8] of the same molecule?
Answer: 94 % of control

Question: What about the T/C [9] of the same molecule?
Answer: 97 % of control

Question: What does the source list for c1ccc2c(CN3CCCCC3)c[nH]c2c1?
Answer: T/C (dose: 50.0 mg/kg/injection, schedule: Q04DX003 (ip), vehicle: saline with Tween-80): 100 % of control; T/C [10]: 90 % of control

Question: What does the source list for C=C(CC(O)(C(F)(F)F)C(F)(F)F)CC(O)(C(F)(F)F)C(F)(F)F?
Answer: T/C (dose: 3.13 mg/kg/injection, schedule: Q01DX005 (ip), vehicle: saline with Tween-80): 102 % of control; T/C (dose: 6.25 mg/kg/injection, schedule: Q01DX005 (ip), vehicle: saline with Tween-80): 104 % of control; T/C (dose: 12.5 mg/kg/injection, schedule: Q01DX001 (ip), vehicle: saline with Tween-80): 99 % of control; T/C (dose: 12.5 mg/kg/injection, schedule: Q01DX005 (ip), vehicle: saline with Tween-80): 107 % of control; T/C (dose: 25.0 mg/kg/injection, schedule: Q01DX001 (ip), vehicle: saline with Tween-80): 99 % of control

Question: Which results are given for CC(=O)/C=C\c1ccc(Cl)cc1?
Answer: T/C (dose: 50.0 mg/kg/injection, schedule: Q01DX009 (ip), vehicle: saline with Tween-80): 100 % of control; T/C (dose: 100.0 mg/kg/injection, schedule: Q01DX009 (ip), vehicle: saline with Tween-80): 91 % of control; T/C [10]: 113 % of control; T/C (dose: 200.0 mg/kg/injection, schedule: Q04DX003 (ip), vehicle: saline with Tween-80): 98 % of control; T/C (dose: 400.0 mg/kg/injection, schedule: Q04DX003 (ip), vehicle: saline with Tween-80): 91 % of control

Question: For CC(=O)C(/C=N/C(N)=O)=C(/C)O, which T/C (dose: 50.0 mg/kg/injection, schedule: Q04DX003 (ip), vehicle: saline) is on record?
Answer: 100 % of control

Question: What about the T/C [11] of the same molecule?
Answer: 100 % of control

Question: What about the T/C [12] of the same molecule?
Answer: 110 % of control

Question: How did the T/C [11] turn out when CNC(=S)N/N=C\C(C)=N/Nc1ccc(F)cc1 was run?
Answer: 99 % of control

Question: What about the T/C [12] of the same molecule?
Answer: 99 % of control

Question: And the T/C (dose: 400.0 mg/kg/injection, schedule: Q04DX003 (ip), vehicle: saline)?
Answer: 94 % of control

Question: Which T/C (dose: 25.0 mg/kg/injection, schedule: Q01DX001 (ip), vehicle: Klucel (hydroxypropylcellulose) (HPC)) does the source give for CC12CSC(C)(SC1)SC2 here?
Answer: 99 % of control

Question: And the T/C (dose: 50.0 mg/kg/injection, schedule: Q01DX001 (ip), vehicle: Klucel (hydroxypropylcellulose) (HPC))?
Answer: 99 % of control

Question: And the T/C (dose: 100.0 mg/kg/injection, schedule: Q01DX001 (ip), vehicle: Klucel (hydroxypropylcellulose) (HPC))?
Answer: 100 % of control

Question: And the T/C (dose: 200.0 mg/kg/injection, schedule: Q01DX001 (ip), vehicle: Klucel (hydroxypropylcellulose) (HPC))?
Answer: 100 % of control

Question: What about the T/C (dose: 400.0 mg/kg/injection, schedule: Q01DX001 (ip), vehicle: Klucel (hydroxypropylcellulose) (HPC)) of the same molecule?
Answer: 95 % of control

Question: What does the source list for CC1CN1c1nc(N2CC2C)nc(N2CC2C)n1 (stereo unspecified)?
Answer: T/C (dose: 1.56 mg/kg/injection, schedule: Q01DX009 (ip), vehicle: saline with Tween-80): 94 % of control; T/C (dose: 3.13 mg/kg/injection, schedule: Q01DX009 (ip), vehicle: saline with Tween-80): 98 % of control

Question: Which results are given for C=CCC12CC(OC)C(O)CC1(O)OC(c1cc(OC)c(OC)c(OC)c1)C2C (stereo unspecified)?
Answer: T/C (dose: 1.25 mg/kg/injection, schedule: Q01DX005 (ip), vehicle: acid diluted with saline): 115 % of control; T/C (dose: 2.5 mg/kg/injection, schedule: Q01DX005 (ip), vehicle: acid diluted with saline): 100 % of control; T/C (dose: 5.0 mg/kg/injection, schedule: Q01DX005 (ip), vehicle: acid diluted with saline): 93 % of control; T/C (dose: 10.0 mg/kg/injection, schedule: Q01DX005 (ip), vehicle: acid diluted with saline): 106 % of control

Question: How did the T/C (dose: 6.25 mg/kg/injection, schedule: Q01DX009 (ip), vehicle: other) turn out when CN(C)C1C(O)C2Oc3c(cc(O)c4c3C(=O)c3cc5c(c(O)c3C4=O)C(NCCO)CC(C)(O)C5)C(C)(O2)C1O (stereo unspecified) was run?
Answer: 104 % of control

Question: And the T/C (dose: 12.5 mg/kg/injection, schedule: Q01DX009 (ip), vehicle: other)?
Answer: 108 % of control

Question: And the T/C (dose: 25.0 mg/kg/injection, schedule: Q01DX009 (ip), vehicle: other)?
Answer: 123 % of control

Question: And the T/C (dose: 50.0 mg/kg/injection, schedule: Q01DX009 (ip), vehicle: other)?
Answer: 157 % of control

Question: And the T/C (dose: 100.0 mg/kg/injection, schedule: Q01DX009 (ip), vehicle: other)?
Answer: 157 % of control

Question: With [N-]=[N+]=CC(=O)C1(c2ccccc2)OC1c1ccccc1 (stereo unspecified) as the molecule, how does the T/C (dose: 25.0 mg/kg/injection, schedule: Q01DX005 (ip), vehicle: saline with Tween-80) read?
Answer: 91 % of control

Question: And the T/C [4]?
Answer: 86 % of control

Question: What about the T/C [5] of the same molecule?
Answer: 94 % of control

Question: And the T/C [6]?
Answer: 86 % of control

Question: For CN(C)CC(=O)Nc1ccc2c(c1)C(=O)c1ccc(NC(=O)CN(C)C)cc1C2=O, which T/C [7] is on record?
Answer: 101 % of control

Question: What about the T/C [8] of the same molecule?
Answer: 97 % of control

Question: What about the T/C [9] of the same molecule?
Answer: 99 % of control

Question: How did the T/C (dose: 12.5 mg/kg/injection, schedule: Q01DX005 (ip), vehicle: saline) turn out when COc1cc(NCC(C)(O)CN2CCCC(C)C2C)c2ncccc2c1 (stereo unspecified) was run?
Answer: 97 % of control

Question: And the T/C (dose: 25.0 mg/kg/injection, schedule: Q01DX005 (ip), vehicle: saline)?
Answer: 101 % of control

Question: What about the T/C (dose: 50.0 mg/kg/injection, schedule: Q01DX005 (ip), vehicle: saline) of the same molecule?
Answer: 112 % of control

Question: Which T/C (dose: 3.12 mg/kg/injection, schedule: Q04DX002 (ip), vehicle: saline with Tween-80) does the source give for Clc1ccnc2ccc3ncccc3c12 here?
Answer: 113 % of control

Question: And the T/C (dose: 6.25 mg/kg/injection, schedule: Q04DX002 (ip), vehicle: saline with Tween-80)?
Answer: 103 % of control

Question: And the T/C (dose: 12.5 mg/kg/injection, schedule: Q04DX002 (ip), vehicle: saline with Tween-80)?
Answer: 100 % of control

Question: With CSc1n[nH]c(C2CCC(=O)N2Cc2ccccc2)n1 (stereo unspecified) as the molecule, how does the T/C [4] read?
Answer: 103 % of control

Question: What about the T/C [5] of the same molecule?
Answer: 101 % of control

Question: And the T/C [6]?
Answer: 100 % of control

Question: How did the T/C (dose: 60.0 mg/kg/injection, schedule: Q01DX005 (ip), vehicle: Klucel (hydroxypropylcellulose) (HPC)) turn out when CCCCCCCCCCCCCCOC(=O)C(N)Cc1ccc(O)cc1 (stereo unspecified) was run?
Answer: 100 % of control

Question: What about the T/C (dose: 120.0 mg/kg/injection, schedule: Q01DX005 (ip), vehicle: Klucel (hydroxypropylcellulose) (HPC)) of the same molecule?
Answer: 100 % of control

Question: What about the T/C (dose: 240.0 mg/kg/injection, schedule: Q01DX005 (ip), vehicle: Klucel (hydroxypropylcellulose) (HPC)) of the same molecule?
Answer: 100 % of control
